Measurements: patent US7776862B2, “Pyridyl and phenyl substituted piperazine-piperidines with CXCR3 antagonist activity” (Schering Corporation, priority 2005, dated 2010)

Molecular target: T1, human CXCR3 (N-delta 4) (Homo sapiens, UniProt P49682)
T1 construct: CD8 leader; Flag tag; expressed in transfected cells; membranes used
T1 sequence (P49682 5-368 limits assumed): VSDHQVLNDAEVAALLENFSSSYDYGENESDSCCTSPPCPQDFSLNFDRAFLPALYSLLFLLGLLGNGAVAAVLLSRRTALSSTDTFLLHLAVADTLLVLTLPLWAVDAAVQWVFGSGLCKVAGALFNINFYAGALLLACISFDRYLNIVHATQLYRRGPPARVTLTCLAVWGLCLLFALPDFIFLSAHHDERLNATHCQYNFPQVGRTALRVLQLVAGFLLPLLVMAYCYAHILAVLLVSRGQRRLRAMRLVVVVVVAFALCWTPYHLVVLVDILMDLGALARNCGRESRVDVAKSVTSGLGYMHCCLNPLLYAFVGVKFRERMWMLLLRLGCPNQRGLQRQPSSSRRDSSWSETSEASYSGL
Assay: Human CXCR3 (N-delta 4) scintillation proximity assay (SPA), [125I] IP-10 binding
Details: IC50 rating; Ba/F3-hCXCR3 (N-delta 4) membranes, 25 pM [125I] IP-10
Excerpt: The inventive compounds can readily be evaluated to determine activity at the CXCR3 receptors by known methods, such as, for example, development of a human CXCR3 (N-delta 4) Binding Assay.
Cloning and expression of human CXCR3 (N-delta 4):
The DNA encoding human CXCR3 was cloned by PCR using human genomic DNA (Promega, Madison, Wis.) as a template. The PCR primers were designed based on the published sequence of human orphan receptor GPR9 (1) with incorporated restriction sites, a Kozak consensus sequence, CD8 leader and Flag tag. The PCR product was subcloned into the mammalian expression vector pME18Sneo, a derivative of the SR-alpha expression vector (designated as pME18Sneo-hCXCR3 (N-delta 4).
IL-3-dependent mouse pro-B cells Ba/F3 were transfected by electroporation in 0.4 ml Dulbecco's PBS containing 4×10^6 cells with 20 μg of pME18Sneo-hCXCR3 (N-delta 4) plasmid DNA. Cells were pulsed at 400 Volts, 100 OHMs, 960 μFd. The transfected cells were under selection with 1 mg/ml G418 (Life Technologies, Gaithersburg, Md.). […] IP-10 (NEN Life Science Products, Boston, Mass.).
Preparation of Ba/F3-hCXCR3 (N-delta 4) membranes:
Ba/F3 cells expressing human CXCR3 (N-delta 4) were pelleted and resuspended in the lysis buffer containing 10 mM HEPES, pH 7.5 and Complete® protease inhibitors (1 tablet per 100 ml) (Boehringer Mannheim, Indianapolis, Ind.) at a cell density of 20×10^6 cells per ml. […] Large cellular debris was removed by centrifugation at 1,000×g. Cell membrane in the supernatant was sedimented at 100,000×g. The membrane was resuspended in the lysis buffer supplemented with 10% sucrose and stored at −80° C. Total protein concentration of the membrane was determined by BCA method from Pierce (Rockford, Ill.).
Human CXCR3 (N-delta 4) scintillation proximity assay (SPA):
The beads were spun down, washed once, resuspended in the binding buffer and transferred to a 96-well Isoplate (Wallac, Gaithersburg, Md.). […] IP-10 with tested compounds in a series of titration were added to start the reaction.

Row | Compound | IC50 [nM]
1 | O=C(NCc1cccc(F)c1)c1cnc(N2CCN(C3CCN(Cc4ccc(Cl)cc4Cl)CC3)CC2)c(Cl)c1 [compound 1] | > 100
2 | N#Cc1ccc(C(=O)N2CCC(N3CCN(c4ncc(C(=O)NCc5ccc(C(F)(F)F)cc5)cc4Cl)CC3)CC2)cc1 [compound 2] | > 100
3 | O=C(NC1CCc2ccccc21)c1cnc(N2CCN(C3CCN(Cc4ccc(Cl)cc4)CC3)CC2)c(Br)c1 (stereo not shown) [compound 3] | > 100
4 | O=C(NCc1ccc(F)cc1)c1cnc(N2CCN(C3CCN(Cc4ccc(Br)cc4F)CC3)CC2)c(Cl)c1 [compound 4] | > 100
5 | O=C(NCc1ccccc1)c1cnc(N2CCN(C3CCN(Cc4ccc(F)cc4)CC3)CC2)c(Cl)c1 [compound 5] | > 100
6 | N#Cc1ccc(CN2CCC(N3CCN(c4ncc(C(=O)NCc5ccccc5F)cc4Cl)CC3)CC2)cc1 [compound 6] | > 100
7 | O=C(NCc1ccc(F)cc1)c1cnc(N2CCN(C3CCN(Cc4ccc(Cl)cc4Cl)CC3)CC2)c(Cl)c1 [compound 7] | > 100
8 | O=C(NCc1cccc(F)c1)c1cnc(N2CCN(C3CCN(Cc4ccc(F)cc4F)CC3)CC2)c(Cl)c1 [compound 8] | > 100
9 | CC1(C)C2CCC(CNC(=O)c3cnc(N4CCN(C5CCN(Cc6ccc(Cl)cc6)CC5)CC4)c(Br)c3)C1C2 (stereo not shown) [compound 9] | > 100
10 | O=C(NCc1ccc(F)cc1F)c1cnc(N2CCN(C3CCN(Cc4ccc(Cl)cc4Cl)CC3)CC2)c(Cl)c1 [compound 10] | > 100
11 | O=C(NCc1ccc(Br)cc1)c1cnc(N2CCN(C3CCN(Cc4ccc(Cl)cc4Cl)CC3)CC2)c(Cl)c1 [compound 11] | > 100
12 | O=C(NCc1cc(Cl)cc(Cl)c1)c1cnc(N2CCN(C3CCN(Cc4ccc(F)cc4F)CC3)CC2)c(Cl)c1 [compound 12] | > 100
13 | O=C(NCc1ccc(Cl)cc1)c1cnc(N2CCN(C3CCN(Cc4ccc(Cl)cc4Cl)CC3)CC2)c(Cl)c1 [compound 13] | > 100
14 | O=C(NCc1cccc(F)c1)c1cnc(N2CCN(C3CCN(Cc4ccc(Br)cc4F)CC3)CC2)c(Cl)c1 [compound 14] | > 100
15 | N#Cc1ccc(C(=O)N2CCC(N3CCN(c4ncc(C(=O)NCCOc5ccccc5)cc4Cl)CC3)CC2)cc1 [compound 15] | > 100
16 | O=C(NCCOc1ccccc1)c1cnc(N2CCN(C3CCN(Cc4ccc(F)cc4F)CC3)CC2)c(Cl)c1 [compound 16] | > 100
17 | O=C(NCc1ccc(Cl)c(Cl)c1)c1ccc(N2CCN(C3CCN(Cc4ccc(Cl)cc4)CC3)CC2)c(Cl)c1 [compound 17] | > 100
18 | O=C(NC1CCCC1)c1cnc(N2CCN(C3CCN(Cc4ccc([N+](=O)[O-])cc4)CC3)CC2)c(Cl)c1 [compound 18] | > 100
19 | N#Cc1ccc(C(=O)N2CCC(N3CCN(c4ncc(C(=O)NCc5ccc(F)cc5)cc4Cl)CC3)CC2)cc1 [compound 19] | > 100
20 | O=C(NCc1ccc(F)cc1F)c1cnc(N2CCN(C3CCN(Cc4ccc(Br)cc4F)CC3)CC2)c(Cl)c1 [compound 20] | > 100
21 | N#Cc1ccc(CN2CCC(N3CCN(c4ncc(C(=O)NCc5ccccc5)cc4Cl)CC3)CC2)cc1 [compound 21] | > 100
22 | O=C(NC1CCCC1)c1cnc(N2CCN(C3CCN(Cc4ccc(Cl)c(F)c4)CC3)CC2)c(Cl)c1 [compound 22] | > 100
23 | O=C(NCCOc1ccccc1)c1cnc(N2CCN(C3CCN(Cc4ccc(Br)cc4F)CC3)CC2)c(Cl)c1 [compound 23] | > 100
24 | O=C(NCc1cccc(Cl)c1)c1cnc(N2CCN(C3CCN(Cc4ccc(Cl)c(F)c4)CC3)CC2)c(Cl)c1 [compound 24] | > 100
25 | O=C(NCc1ccc(F)c(F)c1)c1cnc(N2CCN(C3CCN(Cc4ccc(Cl)cc4Cl)CC3)CC2)c(Cl)c1 [compound 25] | > 100
26 | O=C(NCc1ccc(Cl)cc1Cl)c1cnc(N2CCN(C3CCN(Cc4ccc(Br)cc4F)CC3)CC2)c(Cl)c1 [compound 26] | > 100
27 | O=C(NCc1ccc(Cl)cc1F)c1cnc(N2CCN(C3CCN(Cc4ccc(Br)cc4F)CC3)CC2)c(Cl)c1 [compound 27] | > 100
28 | O=C(NCc1cccc(Cl)c1)c1cnc(N2CCN(C3CCN(Cc4ccc(F)cc4F)CC3)CC2)c(Cl)c1 [compound 28] | > 100
